In US20250041367A1, “BACTERIOPHAGES AND USE THEREOF FOR THE TREATMENT OR PREVENTION OF INFECTION CAUSED BY E. COLI” (Purdue Research Foundation, priority 2023, published 2025):

Assays:
[1] = system: APEC strain O2:H4; experiment: Antibiogram by micro-broth dilution (MIC); format: cell-based, Escherichia coli; details: confirmed on sorbitol-MacConkey agar
Experimental: (§1) As non-pathogenic E. coli are among the bacteria normally present in chickens' gastrointestinal tracts, potential antibiotic resistance selection markers in challenge APEC strains were identified by conducting antibiograms of each APEC strain in the library of APEC strains using a previously described micro-broth dilution method. 90 μL of Brain Heart Infusion broth was aliquoted into each well of 96-well plates. Antibiotics (specifically, kanamycin, gentamycin, neomycin, nalidixic acid, streptomycin, and ampicillin) were added to wells in order to establish an antibiotic concentration gradient spanning across each antibiotic's minimum inhibitory concentration (MIC) as reported by NARMS. […] Following incubation, the lowest concentration of each antibiotic that prevented visible bacterial growth was recorded as the MIC for that antibiotic. MICs were confirmed for each APEC strain by plating each strain on sorbitol-MacConkey agar supplemented with antibiotics at the determined MICs and incubating plates overnight at 37° C. The challenge APEC strain was then selected by incubating samples from chicken ceca on sorbitol-MacConkey agar supplemented with antibiotics at the determined MICs and incubating these samples overnight at 37° C. […]

[2] = system: all other bacteria in the cecal samples; experiment: Chicken cecal samples on sorbitol-MacConkey agar supplemented with antibiotics; format: cell-based; details: streptomycin 64 ug/mL and gentamycin 32 ug/mL, overnight 37° C.
Experimental: as §1

[3] = system: APEC serotype O2:H4; experiment: Lytic capacity of the six-phage treatment compared with antibiotics (OD600); format: cell-based, Escherichia coli; details: APEC O2:H4, antibiotic at its minimum inhibitory concentration (NARMS), 1-4 hours
Experimental: The six APEC strains were individually inoculated into LB broth and incubated at 37° C. until they reached log-phase growth. Phages were added to the log-phase culture of their APEC host at an MOI of 10, and subsequent bacterial concentrations were determined by measuring the absorbance (OD600) of the culture at 1, 2, 3, and 4 hours post-phage application. One flask containing only bacterial culture was included as a negative control. Additional flasks containing both bacterial cultures and antibiotics (specifically, gentamycin sulfate, kanamycin sulfate, nalidixic acid, or chloramphenicol) at their respective minimum inhibitory concentrations (National Antibiotic Resistance Monitoring System (NARMS) 2019, antibiotics tested by NARMS) were included as positive controls. These lytic capacity experiments were conducted in triplicate for each of the phage types and their respective host APEC strains.

Molecule | antibiotic concentration at which APEC strain O2:H4 is resistant [1] | growth of all other bacteria in the cecal samples [2] | OD600 readings of antibiotic-treated APEC cultures over time [3]
[H]/N=C(/N)N[C@H]1[C@H](O)[C@@H](O)[C@H](O[C@@H]2O[C@@H](C)[C@](O)(C=O)[C@H]2O[C@@H]2O[C@@H](CO)[C@H](O)[C@@H](O)[C@@H]2NC)[C@@H](N/C(N)=N\[H])[C@@H]1O [streptomycin] | 64 µg/mL | prohibit the growth | 
gentamycin | 32 µg/mL | prohibit the growth | increased over time
